Results from patent US20100298141A1, “SUBSTITUTED PYRIDINE N-OXIDE HERBICIDES” (E. I. DU PONT DE NEMOURS AND COMPANY, priority 2007, published 2010).

Columns and labels:
giant foxtail [1] = assay: Test A pre-/postemergence greenhouse test; type: in vivo, Setaria faberi; settings: for Plant response rating, Foxtail, Giant: 0 to 100 scale where 0 is no effect and 100 is complete control; for Foxtail, Giant plant response rating: 0 to 100 scale
How it was run: (§1)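 Seeds sown in a loam soil–sand blend got a preemergence directed soil spray of compound in a non-phytotoxic solvent mixture containing surfactant. Postemergence sprays of the same formulation went at the same time onto plants 2–10 cm tall at the one- to two-leaf stage. Injury was scored visually against untreated controls after about ten days in the greenhouse.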

velvetleaf [2] = assay: Test C pre-/postemergence test; type: in vivo, Abutilon theophrasti; settings: for Plant response rating, Velvetleaf: 31 g ai/ha, scale 0 to 100 (0 no effect, 100 complete control)
How it was run: (§2)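 Seeds were planted and treated preemergence with test chemical in a non-phytotoxic solvent mixture containing surfactant. Postemergence applications of the same formulation went onto plants 2 to 18 cm tall (1- to 4-leaf stage). A dash marks no test result.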

bermudagrass = assay: Test C pre-/postemergence test; type: in vivo, Cynodon dactylon; settings: for Plant response rating, Bermudagrass: 31 g ai/ha
How it was run: as §2

Surinam grass = assay: Test C pre-/postemergence test; type: in vivo, Brachiaria decumbens; settings: for Plant response rating, Surinam Grass: 31 g ai/ha, scale 0 to 100 (0 no effect, 100 complete control)
How it was run: as §2

eastern black nightshade = assay: Test C pre-/postemergence test; type: in vivo, Solanum ptycanthum; settings: for Plant response rating, Nightshade: 31 g ai/ha, scale 0 to 100 (0 no effect, 100 complete control)
How it was run: as §2

rice = assay: Test C flooded paddy test; type: in vivo, Oryza sativa; settings: Flood
How it was run: (§3)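 Under a constant 3 cm flood, test compounds went directly into the paddy water. Following 13 to 15 days of greenhouse growth, treated species and controls were compared by eye.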

redroot pigweed = assay: Test A pre-/postemergence greenhouse test; type: in vivo, Amaranthus retroflexus; settings: for Plant response rating, Pigweed: 0 to 100 scale where 0 is no effect and 100 is complete control; for Pigweed plant response rating: 0 to 100 scale
How it was run: as §1

barnyardgrass = assay: Test C flooded paddy test; type: in vivo, Echinochloa crus-galli; settings: Flood
How it was run: as §3

lambsquarters = assay: Test C pre-/postemergence test; type: in vivo, Chenopodium album; settings: for Plant response rating, Lambsquarters: 31 g ai/ha, scale 0 to 100 (0 no effect, 100 complete control)
How it was run: as §2

Goosegrass = assay: Test C pre-/postemergence test; type: in vivo, Eleusin indica; settings: for Plant response rating, Goosegrass: 31 g ai/ha, scale 0 to 100 (0 no effect, 100 complete control)
How it was run: as §2

duck salad = assay: Test C flooded paddy test; type: in vivo, Heteranthera limosa; settings: Flood
How it was run: as §3

wheat = assay: Test A pre-/postemergence greenhouse test; type: in vivo, Triticum aestivum; settings: for Plant response rating, Wheat: 0 to 100 scale where 0 is no effect and 100 is complete control; for Wheat plant response rating: 0 to 100 scale
How it was run: as §1

common ragweed = assay: Test C pre-/postemergence test; type: in vivo, Ambrosia elation; settings: for Plant response rating, Ragweed: 31 g ai/ha, scale 0 to 100 (0 no effect, 100 complete control)
How it was run: as §2

wild oat = assay: Test C pre-/postemergence test; type: in vivo, Avena fatua; settings: for Plant response rating, Oat, Wild: 31 g ai/ha, scale 0 to 100 (0 no effect, 100 complete control)
How it was run: as §2

corn = assay: Test A pre-/postemergence greenhouse test; type: in vivo, Zea mays; settings: for Plant response rating, Corn: 0 to 100 scale where 0 is no effect and 100 is complete control; for Corn plant response rating: 0 to 100 scale
How it was run: as §1

giant foxtail [3] = assay: Test C pre-/postemergence test; type: in vivo, Setaria faberii; settings: for Plant response rating, Foxtail, Giant: 31 g ai/ha, scale 0 to 100 (0 no effect, 100 complete control)
How it was run: as §2

johnsongrass = assay: Test C pre-/postemergence test; type: in vivo, Sorghum halepense; settings: for Plant response rating, Johnsongrass: 31 g ai/ha, scale 0 to 100 (0 no effect, 100 complete control)
How it was run: as §2

velvetleaf [4] = assay: Test A pre-/postemergence greenhouse test; type: in vivo, Abutilon theophrasti; settings: for Plant response rating, Velvetleaf: 0 to 100 scale where 0 is no effect and 100 is complete control; for Velvetleaf plant response rating: 0 to 100 scale
How it was run: as §1

[5] = Postemergence, 500 g ai/ha, 0 is no effect, 100 is complete control
[6] = Preemergence, 125 g ai/ha, 0 no effect, 100 complete control
[7] = Preemergence, 500 g ai/ha, 0 no effect, 100 complete control
[8] = 62 g ai/ha, Preemergence, scale 0 to 100
[9] = 125 g ai/ha, preemergence, scale 0 (no effect) to 100 (complete control)
[10] = preemergence, 250 g ai/ha, scale 0 (no effect) to 100 (complete control)
[11] = 62 g ai/ha, Preemergence, scale 0 to 100 (0 no effect, 100 complete control)
[12] = Preemergence, scale 0 to 100 (0 no effect, 100 complete control)
[13] = 31 g ai/ha, scale 0 to 100 (0 no effect, 100 complete control)
[14] = 62 g ai/ha, scale 0 to 100 (0 no effect, 100 complete control)
[15] = 125 g ai/ha, scale 0 to 100, 0 no effect, 100 complete control, 13 to 15 days
[16] = 250 g ai/ha, scale 0 to 100, 0 no effect, 100 complete control, 13 to 15 days

CC(C)c1cc[n+]([O-])c([S+]([O-])Cc2c(C(F)(F)F)nn(C)c2OC(F)F)c1 (stereo not drawn) [Compound 109]
Plant response rating, Foxtail, Giant (giant foxtail [1]; Postemergence, 125 g ai/ha): 80
Foxtail, Giant plant response rating (giant foxtail [1]; [5]): 90
Foxtail, Giant plant response rating (giant foxtail [1]; [6]): 90
Foxtail, Giant plant response rating (giant foxtail [1]; [7]): 100
Velvetleaf plant response rating (velvetleaf [2]; [8]): 80
Velvetleaf plant response rating (velvetleaf [2]; [9]): 98
Plant response rating, Velvetleaf (velvetleaf [2]; Preemergence): 10
Velvetleaf plant response rating (velvetleaf [2]; [10]): 100
Bermudagrass plant response rating (bermudagrass; [11]): 100
Bermudagrass plant response rating (bermudagrass; [9]): 100
Plant response rating, Bermudagrass (bermudagrass; [12]): 95
Bermudagrass plant response rating (bermudagrass; [10]): 100
Surinam Grass plant response rating (Surinam grass; [8]): 95
Surinam Grass plant response rating (Surinam grass; [9]): 100
Plant response rating, Surinam Grass (Surinam grass; Preemergence): 50
Surinam Grass plant response rating (Surinam grass; [10]): 100
Nightshade plant response rating (eastern black nightshade; [8]): 80
Nightshade plant response rating (eastern black nightshade; [9]): 95
Plant response rating, Nightshade (eastern black nightshade; Preemergence): 20
Nightshade plant response rating (eastern black nightshade; [10]): 100
Plant response rating, Rice (rice; [13]): 0
Plant response rating, Rice (rice; [14]): 0
Plant response rating, Rice (rice; [15]): 0
Plant response rating, Rice (rice; [16]): 20
Plant response rating, Pigweed (redroot pigweed; Postemergence, 125 g ai/ha): 60
Pigweed plant response rating (redroot pigweed; [5]): 90
Pigweed plant response rating (redroot pigweed; [6]): 100
Pigweed plant response rating (redroot pigweed; [7]): 100
Plant response rating, Barnyardgrass (barnyardgrass; [13]): 0
Plant response rating, Barnyardgrass (barnyardgrass; [14]): 20
Plant response rating, Barnyardgrass (barnyardgrass; [15]): 20
Plant response rating, Barnyardgrass (barnyardgrass; [16]): 20
Lambsquarters plant response rating (lambsquarters; [8]): 100
Lambsquarters plant response rating (lambsquarters; [9]): 100
Plant response rating, Lambsquarters (lambsquarters; Preemergence): 100
Lambsquarters plant response rating (lambsquarters; [10]): 100
Goosegrass plant response rating (Goosegrass; [8]): 100
Goosegrass plant response rating (Goosegrass; [9]): 100
Plant response rating, Goosegrass (Goosegrass; Preemergence): 100
Goosegrass plant response rating (Goosegrass; [10]): 100
Plant response rating, Ducksalad (duck salad; [13]): 0
Plant response rating, Ducksalad (duck salad; [14]): 40
Plant response rating, Ducksalad (duck salad; [15]): 45
Plant response rating, Ducksalad (duck salad; [16]): 65
Plant response rating, Wheat (wheat; Postemergence, 125 g ai/ha): 60
Wheat plant response rating (wheat; [5]): 70
Wheat plant response rating (wheat; [6]): 60
Wheat plant response rating (wheat; [7]): 100
Ragweed plant response rating (common ragweed; [8]): 50
Ragweed plant response rating (common ragweed; [9]): 55
Plant response rating, Ragweed (common ragweed; Preemergence): 50
Ragweed plant response rating (common ragweed; [10]): 80
Oat, Wild plant response rating (wild oat; [8]): 70
Oat, Wild plant response rating (wild oat; [9]): 90
Plant response rating, Oat, Wild (wild oat; Preemergence): 50
Oat, Wild plant response rating (wild oat; [10]): 98
Plant response rating, Corn (corn; Postemergence, 125 g ai/ha): 60
Corn plant response rating (corn; [5]): 80
Corn plant response rating (corn; [6]): 50
Corn plant response rating (corn; [7]): 90
Foxtail, Giant plant response rating (giant foxtail [3]; [8]): 100
Foxtail, Giant plant response rating (giant foxtail [3]; [9]): 100
Plant response rating, Foxtail, Giant (giant foxtail [3]; Preemergence): 100
Foxtail, Giant plant response rating (giant foxtail [3]; [10]): 100
Johnsongrass plant response rating (johnsongrass; [8]): 100
Johnsongrass plant response rating (johnsongrass; [9]): 100
Plant response rating, Johnsongrass (johnsongrass; Preemergence): 85
Johnsongrass plant response rating (johnsongrass; [10]): 100
Plant response rating, Velvetleaf (velvetleaf [4]; Postemergence, 125 g ai/ha): 60
Velvetleaf plant response rating (velvetleaf [4]; [5]): 80
Velvetleaf plant response rating (velvetleaf [4]; [6]): 50
Velvetleaf plant response rating (velvetleaf [4]; [7]): 100

CCc1cc[n+]([O-])c(S(=O)(=O)Cc2c(C(F)(F)F)nn(C)c2OC(F)F)c1 [Compound 102]
Plant response rating, Foxtail, Giant (giant foxtail [1]; Postemergence, 125 g ai/ha): 80
Foxtail, Giant plant response rating (giant foxtail [1]; [5]): 90
Foxtail, Giant plant response rating (giant foxtail [1]; [6]): 90
Foxtail, Giant plant response rating (giant foxtail [1]; [7]): 100
Velvetleaf plant response rating (velvetleaf [2]; [8]): 30
Velvetleaf plant response rating (velvetleaf [2]; [9]): 80
Plant response rating, Velvetleaf (velvetleaf [2]; Preemergence): 0
Velvetleaf plant response rating (velvetleaf [2]; [10]): 95
Bermudagrass plant response rating (bermudagrass; [11]): 85
Bermudagrass plant response rating (bermudagrass; [9]): 100
Plant response rating, Bermudagrass (bermudagrass; [12]): 85
Bermudagrass plant response rating (bermudagrass; [10]): 100
Surinam Grass plant response rating (Surinam grass; [8]): 70
Surinam Grass plant response rating (Surinam grass; [9]): 70
Plant response rating, Surinam Grass (Surinam grass; Preemergence): 65
Surinam Grass plant response rating (Surinam grass; [10]): 95
Nightshade plant response rating (eastern black nightshade; [8]): 90
Nightshade plant response rating (eastern black nightshade; [9]): 95
Plant response rating, Nightshade (eastern black nightshade; Preemergence): 85
Nightshade plant response rating (eastern black nightshade; [10]): 98
Plant response rating, Rice (rice; [14]): 0
Plant response rating, Rice (rice; [16]): 20
Plant response rating, Pigweed (redroot pigweed; Postemergence, 125 g ai/ha): 70
Pigweed plant response rating (redroot pigweed; [5]): 100
Pigweed plant response rating (redroot pigweed; [6]): 100
Pigweed plant response rating (redroot pigweed; [7]): 100
Plant response rating, Barnyardgrass (barnyardgrass; [14]): 0
Plant response rating, Barnyardgrass (barnyardgrass; [16]): 0
Lambsquarters plant response rating (lambsquarters; [8]): 80
Lambsquarters plant response rating (lambsquarters; [9]): 100
Plant response rating, Lambsquarters (lambsquarters; Preemergence): 40
Lambsquarters plant response rating (lambsquarters; [10]): 100
Goosegrass plant response rating (Goosegrass; [8]): 98
Goosegrass plant response rating (Goosegrass; [9]): 100
Plant response rating, Goosegrass (Goosegrass; Preemergence): 85
Goosegrass plant response rating (Goosegrass; [10]): 100
Plant response rating, Ducksalad (duck salad; [14]): 0
Plant response rating, Ducksalad (duck salad; [16]): 80
Plant response rating, Wheat (wheat; Postemergence, 125 g ai/ha): 50
Wheat plant response rating (wheat; [5]): 60
Wheat plant response rating (wheat; [6]): 50
Wheat plant response rating (wheat; [7]): 100
Ragweed plant response rating (common ragweed; [8]): 80
Ragweed plant response rating (common ragweed; [9]): 85
Plant response rating, Ragweed (common ragweed; Preemergence): 75
Ragweed plant response rating (common ragweed; [10]): 95
Oat, Wild plant response rating (wild oat; [8]): 70
Oat, Wild plant response rating (wild oat; [9]): 90
Plant response rating, Oat, Wild (wild oat; Preemergence): 35
Oat, Wild plant response rating (wild oat; [10]): 95
Plant response rating, Corn (corn; Postemergence, 125 g ai/ha): 40
Corn plant response rating (corn; [5]): 50
Corn plant response rating (corn; [6]): 0
Corn plant response rating (corn; [7]): 0
Foxtail, Giant plant response rating (giant foxtail [3]; [8]): 70
Foxtail, Giant plant response rating (giant foxtail [3]; [9]): 85
Plant response rating, Foxtail, Giant (giant foxtail [3]; Preemergence): 60
Foxtail, Giant plant response rating (giant foxtail [3]; [10]): 85
Johnsongrass plant response rating (johnsongrass; [8]): 100
Johnsongrass plant response rating (johnsongrass; [9]): 100
Plant response rating, Johnsongrass (johnsongrass; Preemergence): 70
Johnsongrass plant response rating (johnsongrass; [10]): 100
Plant response rating, Velvetleaf (velvetleaf [4]; Postemergence, 125 g ai/ha): 70
Velvetleaf plant response rating (velvetleaf [4]; [5]): 90
Velvetleaf plant response rating (velvetleaf [4]; [6]): 70
Velvetleaf plant response rating (velvetleaf [4]; [7]): 100
